One experiment concerns Z-138 cell line. In words: Z-138 Proliferation Assay (Cell Titer Glo). Type of experiment: cell-based. To be noted: Homo sapiens, 120 h; Z-138 cells, 5 days incubation, ATP (Cell Titer Glo). The method in brief: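 Z-138 cells in RPMI with 10% FBS exposed 5 days at 37 °C to nine-point 3-fold dilutions, top 20 μM final, 0.2% DMSO, triplicate. ATP-based CellTiter-Glo luminescence; IC50 from 4-parameter fit of normalized curves.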

A further experiment has as its target T1, PRMT5/MEP50 (Homo sapiens, UniProt O14744).
T1 construct: Flag-PRMT5; made in house; host or cells: Spodoptera frugiperda (SF9) insect cells, baculovirus (pDEST8)
In words: PRMT5 Biochemical Assay (PRMT5/MEP50 enzyme assay on peptide substrate, 3H-SAM Flashplate). To be noted: PRMT5/MEP50 4 nM, 3H-SAM 75 nM, peptide 40 nM, 30 min preincubation at 25 degrees Celsius. The procedure, abridged: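 FLAG-PRMT5/His-MEP50 from Sf9 cells (4 nM) preincubated 30 min at 25 °C with compounds, then reacted with 75 nM 3H-SAM and 40 nM biotinylated histone H4 1-15 peptide in Bicine pH 7.6, 1% DMSO. Stopped with 600 uM cold SAM; streptavidin Flashplate capture, scintillation counts; % inhibition fitted to 3- or 4-parameter curve.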

T1 sequence (O14744 with tags, fused parts or gaps): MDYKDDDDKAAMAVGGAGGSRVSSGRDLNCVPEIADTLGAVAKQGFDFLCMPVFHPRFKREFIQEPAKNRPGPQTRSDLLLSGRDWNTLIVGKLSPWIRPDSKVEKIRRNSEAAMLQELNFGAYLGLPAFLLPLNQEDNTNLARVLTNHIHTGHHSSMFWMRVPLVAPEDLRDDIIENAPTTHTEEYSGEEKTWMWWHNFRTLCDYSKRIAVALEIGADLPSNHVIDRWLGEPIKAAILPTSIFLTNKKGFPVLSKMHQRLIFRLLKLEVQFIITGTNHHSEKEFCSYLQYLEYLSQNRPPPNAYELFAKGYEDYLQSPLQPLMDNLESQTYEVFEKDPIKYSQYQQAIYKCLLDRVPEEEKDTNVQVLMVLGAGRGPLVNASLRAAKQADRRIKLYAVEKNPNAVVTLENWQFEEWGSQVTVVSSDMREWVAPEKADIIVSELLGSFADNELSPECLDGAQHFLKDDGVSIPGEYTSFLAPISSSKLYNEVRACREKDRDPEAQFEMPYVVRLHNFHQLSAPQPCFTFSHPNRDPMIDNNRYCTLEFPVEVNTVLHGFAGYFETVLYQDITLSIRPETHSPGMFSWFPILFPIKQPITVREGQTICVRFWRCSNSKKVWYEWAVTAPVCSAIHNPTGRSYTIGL
T1 sequence (Q9BQA1 with tags, fused parts or gaps partner limits assumed): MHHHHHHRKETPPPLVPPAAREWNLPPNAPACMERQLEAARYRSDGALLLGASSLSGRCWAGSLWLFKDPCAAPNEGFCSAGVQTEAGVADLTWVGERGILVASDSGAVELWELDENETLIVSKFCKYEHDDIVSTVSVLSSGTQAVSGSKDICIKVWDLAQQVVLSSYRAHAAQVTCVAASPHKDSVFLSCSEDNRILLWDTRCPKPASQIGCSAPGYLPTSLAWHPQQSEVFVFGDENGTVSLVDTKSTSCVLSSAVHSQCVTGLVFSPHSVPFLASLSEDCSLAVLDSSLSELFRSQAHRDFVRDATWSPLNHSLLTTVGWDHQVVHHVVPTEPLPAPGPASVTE

Regarding `CC(=O)N1CC(Nc2cc(C(=O)NC[C@H](O)CN3CCc4c(cnn4C)C3)ncn2)C1` [Compound 3-29], in the experiment on Z-138 cell line, the EC50 is above 5 µM. The 50% inhibitory concentration (IC50) at PRMT5/MEP50 was above 10 µM.
For `O=C(COc1cccc2cccnc12)NCC(O)CN1CCc2ccsc2C1` (stereo not drawn) [Compound 1-5, N-(2-hydroxy-3-{4H,5H,6H,7H-thieno[2,3-c]pyridin-6-yl}propyl)-2-(quinolin-8-yloxy)acetamide], in that order: above 5 µM and below 0.1 µM.
For `CC(=O)N1CCC(Nc2cc(C(=O)NC[C@H](O)CN3CCc4ncn(C)c4C3)ncn2)CC1` [Compound 3-30, (S)-6-((1-acetylpiperidin-4-yl)amino)-N-(2-hydroxy-3-(3-methyl-6,7-dihydro-3H-imidazo[4,5-c]pyridin-5(4H)-yl)propyl)pyrimidine-4-carboxamide], in that order: above 5 µM and above 10 µM.
